Values quoted from earlier work as cited in EP0238198A2, “Method of modifying the lipid structure function and expression of cell membranes and pharmaceutical compositions for use therein” (Habib, Nagy Adly, priority 1986, dated 1987).

System: hepatoma cell lines
Conditions: in vitro; cited from earlier work

## CCCCCCCCC1=C(CCCCCCCC(=O)O)C1 [sterculic acid]
  growth inhibition: growth inhibition
  saturation index: increase in their saturation index
